# “Also recorded” adds a separate entry of the source. Read-outs that look alike come from different tables or passages of the source.
# Key:
# [1] = test system: ER-mitochondria Ca^2+ transfer; assay: Corticosterone-induced mitochondrial Ca2+ levels in cerebral cortical neurons; format: cell-based, mouse; settings: for corticosterone-induced increase in mitochondrial Ca2+ levels: preincubation with the agent
# Procedure: (§1) To verify the hypothesis, changes in ROS and mitochondrial Ca^2+ levels in cerebral cortical neurons were assessed after treatment with corticosterone (CORT), which is a glucocorticoid stress hormone.
# [2] = test system: ER-mitochondria Ca^2+ transfer; assay: Oxidative stress (H2O2 / MSC)-induced mitochondrial Ca2+ levels in cerebral cortical neurons; format: cell-based, mouse
# Procedure: At this time, to measure mitochondrial Ca^2+ levels at specific time points during incubation of neurons with H2O2, Rhod2/AM, which is a mitochondria-specific chemical Ca^2+ indicator, was used instead of Mito-GCaMP6 capable of causing variations due to different expression levels of Mito-GCaMP6 at multiple time points.
# [3] = test system: cerebral cortical neurons; assay: ER Ca2+ storage capacity / IP3 generation after corticosterone; format: cell-based, mouse; settings: corticosterone for 1 hour
# Procedure: To verify the hypothesis, changes in ROS and mitochondrial Ca^2+ levels in cerebral cortical neurons were assessed after treatment with corticosterone (CORT), which is a glucocorticoid stress hormone. […] To determine whether this glucocorticoid-dependent increase in mitochondrial Ca^2+ levels relies on the induction of oxidative stress, apocynin (APO), which is an antioxidant and a ROS scavenger, was used. […] In contrast, it was confirmed that, when neurons were treated with corticosterone for 1 hour, the capacity of the ER for Ca^2+ storage or IP3 generation was not changed.
# [4] = test system: cerebral cortical neurons; assay: Corticosterone-induced ROS generation in cerebral cortical neurons; format: cell-based, mouse
# Procedure: as §1
# [5] = test system: ER-mitochondria Ca^2+ transfer; assay: IP3-induced mitochondrial Ca2+ imaging (Mito-GCaMP6) in permeabilized cerebral cortical neurons; format: cell-based, mouse
# Procedure: Neurons (DIV7-8) transfected with Mito-GCaMP6 along with each construct were permeabilized with digitonin and Ca^2+-free ionomycin at 37° C. for 2 minutes in a modified EGTA- and Ca^2+-free buffer, and then was exposed to IP3. To measure the effect of RiBFM on mitochondrial Ca^2+ responses, neurons were transfected with Mito GCaMP6, AKAP1-FKBP12, and FRB-SAC1 together with pFlag-cmv2 or Flag-DISC1 on DIV5-6, and neurons pre-incubated with rapamycin for 5 minutes were exposed to IP3 in the same manner as described above.
# By considering the functional association between IP3R1 and DISC1 at the MAM, which was verified in the above example, the inventors of the present disclosure examined whether or not DISC1 was involved in regulating ER-mitochondria Ca^2+ transfer. For this, expression constructs for GCaMP6, which is a genetically encoded Ca^2+ indicator, were modified by combining the target sequences for mitochondria or the ER. Subsequently, it was confirmed that the organelle-specific GCaMP6 constructs were expressed in cerebral cortical neurons. In the case of ER Ca^2+ measurement, the results were verified using ER-GCaMP3, which has a relatively low affinity for Ca^2+. […]
# IP3R1 [6] = assay: Competitive IP3 binding assay; settings: proteins immunoprecipitated from HEK293FT cells; 3 nM [3H]-IP3, 4° C., 1 hour
# Procedure: Transfected HEK293FT cells were lysed in a NP40 buffer, and then the proteins were immunoprecipitated with antibodies. The immunoprecipitated proteins were incubated with 3 nM [^3H]-IP3 at 4° C. for 1 hour and the concentration of cold IP3 was increased in a Ca^2+-free CLM buffer. Meanwhile, brains were isolated from adult WT or DISC1 LI mice and lysed in a NP40 buffer by sonication, and then endogenous IP3R1 and the DISC1 protein were immunoprecipitated with specific antibodies, and then incubated with [^3H]-IP3 in the same manner as described above, and the concentration of cold IP3 was increased. Thereafter, the resulting mixture was filtered with a GF/B filter and washed three times with a CLM buffer, and then the filter was dried, and radioactivity was measured using a scintillation counter.
# In IP3R1, the ligand-binding and modulatory domains are critical regions for ligand binding of IP3Rs, and thus the inventors of the present disclosure examined the influence of DISC1 on binding between IP3R1 and its ligand, i.e., IP3. For this, competitive IP3 binding analysis was performed using IP3R1, DISC1, or DISC1^Δ1-201, which was isolated from HEK293FT cells by immunoprecipitation with antibodies according to the methods of Examples 1 to 3.
# IP3R1 [7] = assay: Immunoprecipitation analysis of interaction between DISC1 and IP3R1; format: binding
# From the text: IP3R1 is known to be predominantly expressed in the brain and abundant in the MAM. Therefore, the MAM localization of DISC1 was confirmed through Example 2, and to examine the interaction between DISC1 and IP3R1, the inventors of the present disclosure performed immunoprecipitation analysis on the two proteins. […] In addition, as illustrated in the immunoblotting results of FIG. 2C, it was confirmed that the endogenous DISC1 protein and the IP3R1 protein were expressed together in whole lysates and the crude MAM fraction ((MAM+Mito), which was derived from the brains of adult mice.
# [8] = treatment with corticosterone for 1 hour
molecule,measurement,setting,value
"NCCOB(c1ccccc1)c1ccccc1 [2-APB, 2-aminoethyl diphenylborinate]",corticosterone-induced increase in mitochondrial Ca2+ levels,[1],not observed
same,mitochondrial Ca2+ levels during incubation with H2O2,[2],these results were not shown
"COc1cc(C(C)=O)ccc1O [APO, apocynin]",corticosterone-induced mitochondrial Ca2+ levels,"[1]; DISC1 shRNA vs CTL shRNA neurons, corticosterone 1 hour",significantly reduced
same,difference in mitochondrial Ca2+ accumulation between WT and DISC1 LI neurons,[1]; corticosterone,significantly reduced
same,corticosterone-induced increase in mitochondrial Ca2+ levels,[1],significantly reduced
"OO [H2O2, Hydrogen peroxide]",mitochondrial Ca2+ levels during incubation with H2O2,"[2]; Rhod2/AM, specific time points",increased proportional to the incubation time
C[C@]12C[C@H](O)[C@H]3[C@@H](CCC4=CC(=O)CC[C@@]43C)[C@@H]1CC[C@@H]2C(=O)CO [corticosterone],mitochondrial Ca2+ levels,[1]; [8],significant increases
same,capacity of the ER for Ca2+ storage or IP3 generation,[3],not changed
same,ROS levels,[4]; [8],significant increases
"DISC1: disrupted in schizophrenia 1 (DISC1) protein, amino acid sequence of SEQ ID NO: 1 or SEQ ID NO: 2 (protein, UniProt Q9NRI5 1-854, looked up) Disrupted in schizophrenia 1 …: MPGGGPQGAPAAAGGGGVSHRAGSRDCLPPAACFRRRRLARRPGYMRSSTGPGIGFLSPAVGTLFRFPGGVSGEESHHSESRARQCGLDSRGLLVRSPVSKSAAAPTVTSVRGTSAHFGIQLRGGTRLPDRLSWPCGPGSAGWQQEFAAMDSSETLDASWEAACSDGARRVRAAGSLPSAELSSNSCSPGCGPEVPPTPPGSHSAFTSSFSFIRLSLGSAGERGEAEGCPPSREAESHCQSPQEMGAKAASLDGPHEDPRCLSRPFSLLATRVSADLAQAARNSSRPERDMHSLPDMDPGSSSSLDPSLAGCGGDGSSGSGDAHSWDTLLRKWEPVLRDCLLRNRRQMEVISLRLKLQKLQEDAVENDDYDKAETLQQRLEDLEQEKISLHFQLPSRQPALSSFLGHLAAQVQAALRRGATQQASGDDTHTPLRMEPRLLEPTAQDSLHVSITRRDWLLQEKQQLQKEIEALQARMFVLEAKDQQLRREIEEQEQQLQWQGCDLTPLVGQLSLGQLQEVSKALQDTLASAGQIPFHAEPPETIRSLQERIKSLNLSLKEITTKVCMSEKFCSTLRKKVNDIETQLPALLEAKMHAISGNHFWTAKDLTEEIRSLTSEREGLEGLLSKLLVLSSRNVKKLGSVKEDYNRLRREVEHQETAYETSVKENTMKYMETLKNKLCSCKCPLLGKVWEADLEACRLLIQSLQLQEARGSLSVEDERQMDDLEGAAPPIPPRLHSEDKRKTPLKVLEEWKTHLIPSLHCAGGEQKEESYILSAELGEKCEDIGKKLLYLEDQLHTAIHSHDEDLIQSLRRELQMVKETLQAMILQLQPAKEAGEREAAASCMTAGVHEAQA",IP3-induced increase in mitochondrial Ca2+ levels,"[5]; overexpression in permeabilized neurons, compared to control (Vector)",significantly reduced the increase in mitochondrial Ca^2+ levels; also recorded: decreased
same,binding ability of unlabeled IP3 relative to [3H]IP3 bound to IP3R1,IP3R1 [6],decreased
same,IP3R1 domains that DISC1 interacted with,IP3R1 [7]; expression constructs for functional domains of IP3R1,"a ligand-binding domain (LBD) and modulatory domains (MD1, MD2, and MD3)"
same,interaction with IP3R1 (GFP-IP3R1),IP3R1 [7]; immunoprecipitation,strong interaction
same,corticosterone-induced ROS generation,[4]; DISC1 knockdown or overexpression in neurons,reduced ROS levels
same,degree to which mitochondrial Ca2+ levels were increased,"[2]; overexpression, 1 hour after H2O2 incubation, compared to control",significantly reduced
"hDISC1: human DISC1 resistant to shRNA (protein, UniProt Q9NRI5 1-854, looked up, shRNA-resistant silent changes, human DISC1 resistant to shRNA) Disrupted in schizophrenia 1 …: MPGGGPQGAPAAAGGGGVSHRAGSRDCLPPAACFRRRRLARRPGYMRSSTGPGIGFLSPAVGTLFRFPGGVSGEESHHSESRARQCGLDSRGLLVRSPVSKSAAAPTVTSVRGTSAHFGIQLRGGTRLPDRLSWPCGPGSAGWQQEFAAMDSSETLDASWEAACSDGARRVRAAGSLPSAELSSNSCSPGCGPEVPPTPPGSHSAFTSSFSFIRLSLGSAGERGEAEGCPPSREAESHCQSPQEMGAKAASLDGPHEDPRCLSRPFSLLATRVSADLAQAARNSSRPERDMHSLPDMDPGSSSSLDPSLAGCGGDGSSGSGDAHSWDTLLRKWEPVLRDCLLRNRRQMEVISLRLKLQKLQEDAVENDDYDKAETLQQRLEDLEQEKISLHFQLPSRQPALSSFLGHLAAQVQAALRRGATQQASGDDTHTPLRMEPRLLEPTAQDSLHVSITRRDWLLQEKQQLQKEIEALQARMFVLEAKDQQLRREIEEQEQQLQWQGCDLTPLVGQLSLGQLQEVSKALQDTLASAGQIPFHAEPPETIRSLQERIKSLNLSLKEITTKVCMSEKFCSTLRKKVNDIETQLPALLEAKMHAISGNHFWTAKDLTEEIRSLTSEREGLEGLLSKLLVLSSRNVKKLGSVKEDYNRLRREVEHQETAYETSVKENTMKYMETLKNKLCSCKCPLLGKVWEADLEACRLLIQSLQLQEARGSLSVEDERQMDDLEGAAPPIPPRLHSEDKRKTPLKVLEEWKTHLIPSLHCAGGEQKEESYILSAELGEKCEDIGKKLLYLEDQLHTAIHSHDEDLIQSLRRELQMVKETLQAMILQLQPAKEAGEREAAASCMTAGVHEAQA",IP3-dependent increase in mitochondrial Ca2+,"[5]; DISC1 expression inhibited, compared to control neurons (CTL shRNA)",restored similarly to the control

# Reference: patent US20190167761A1, “PHARMACEUTICAL COMPOSITION FOR PREVENTING OR TREATING STRESS-RELATED DISEASE, INCLUDING DISC1 PROTEIN OR GENE ENCODING THE SAME” (POSTECH ACADEMY-INDUSTRY FOUNDATION, priority 2017, published 2019)
